Species: Rattus norvegicus
Assay: Open TG-GATES - Regimen: Daily Repeat
Format: toxicity, organism-based, Sprague-Dawley
Design: regimen Daily Repeat, gender Male, age 6 weeks
Conditions: in vivo, po, route gavage; for APTT / Bas / Eos / Fbg / Hb / Ht / Lym / MCH / MCHC / MCV / Mono / Neu / Plat / RBC / Ret / WBC / PT: tissue Blood; for KIDNEY_L / KIDNEY_R / KIDNEY_TOTAL: tissue Kidney; for ALP / ALT / AST / BUN / CRE / Ca / Cl / DBIL / GLC / IP / K / LDH / Na / PL / RALB / TBIL / TC / TG / TP / gamma-GTP: tissue Plasma
[1] = 0 mg/kg, 72 h, dose level Control, time 3 day
[2] = 0 mg/kg, […], dose level Control, time 7 day
[3] = 0 mg/kg, […], dose level Control, time 14 day
[4] = 0 mg/kg, […], dose level Control, time 28 day
[5] = 45 mg/kg, 72 h, dose level Low, time 3 day
[6] = 45 mg/kg, […], dose level Low, time 7 day
[7] = 45 mg/kg, […], dose level Low, time 14 day
[8] = 45 mg/kg, […], dose level Low, time 28 day

CC(=O)Oc1ccccc1C(=O)O [ASPIRIN]
TERMINAL_BW [1]: 238.8 g
APTT [1]: 19.3 s
Bas [1]: 0%
Eos [1]: 1%
Fbg [1]: 216.6 mg/dL
Hb [1]: 13.1 g/dL
Ht [1]: 38.5%
Lym [1]: 82%
MCH [1]: 21.2 pg
MCHC [1]: 34.2%
MCV [1]: 62.1 fL
Mono [1]: 2.4%
Neu [1]: 13.4%
Plat [1]: 121.3 x10_4/uL
RBC [1]: 620 x10_4/ul
Ret [1]: 5.9%
WBC [1]: 98.5 x10_2/uL
KIDNEY_L [1]: 1.1 g
KIDNEY_R [1]: 1.1 g
KIDNEY_TOTAL [1]: 2.1 g
ALP [1]: 970.4 IU/L
ALT [1]: 35.6 IU/L
AST [1]: 73.2 IU/L
BUN [1]: 14.8 mg/dL
CRE [1]: 0.4 mg/dL
Ca [1]: 10.8 mg/dL
Cl [1]: 102.2 meq/L
DBIL [1]: 0.082 mg/dL
GLC [1]: 203.2 mg/dL
IP [1]: 7.1 mg/dL
K [1]: 3.9 meq/L
LDH [1]: 223 IU/L
Na [1]: 140.4 meq/L
PL [1]: 148.8 mg/dL
RALB [1]: 3.4 g/dL
TBIL [1]: 0.1 mg/dL
TC [1]: 74.6 mg/dL
TG [1]: 99.2 mg/dL
TP [1]: 5.7 g/dL
gamma-GTP [1]: 1 IU/L
TERMINAL_BW [2]: 272.8 g
TERMINAL_BW [3]: 324.4 g
TERMINAL_BW [4]: 389.9 g
APTT [2]: 21.2 s
Bas [2]: 0%
Eos [2]: 1%
Fbg [2]: 211.2 mg/dL
Hb [2]: 13.7 g/dL
Ht [2]: 40.3%
Lym [2]: 85.6%
MCH [2]: 21.1 pg
MCHC [2]: 34%
MCV [2]: 62.1 fL
Mono [2]: 2%
Neu [2]: 11%
Plat [2]: 128.4 x10_4/uL
RBC [2]: 648.4 x10_4/ul
Ret [2]: 5.3%
WBC [2]: 135.5 x10_2/uL
APTT [3]: 20.2 s
Bas [3]: 0%
Eos [3]: 0.8%
Fbg [3]: 216.8 mg/dL
Hb [3]: 14.2 g/dL
Ht [3]: 40.6%
Lym [3]: 82.6%
MCH [3]: 20.8 pg
MCHC [3]: 34.9%
MCV [3]: 59.6 fL
Mono [3]: 2%
Neu [3]: 13.4%
RBC [3]: 681.6 x10_4/ul
Ret [3]: 3.4%
WBC [3]: 134.5 x10_2/uL
APTT [4]: 21.5 s
Bas [4]: 0%
Eos [4]: 1%
Fbg [4]: 210.8 mg/dL
Hb [4]: 15.7 g/dL
Ht [4]: 45.3%
Lym [4]: 81.8%
MCH [4]: 19.3 pg
MCHC [4]: 34.7%
MCV [4]: 55.6 fL
Mono [4]: 2%
Neu [4]: 13.8%
PT [4]: 12.6 s
Plat [4]: 116.7 x10_4/uL
RBC [4]: 815.4 x10_4/ul
Ret [4]: 1.8%
WBC [4]: 109 x10_2/uL
KIDNEY_L [2]: 1.2 g
KIDNEY_R [2]: 1.2 g
KIDNEY_TOTAL [2]: 2.3 g
KIDNEY_L [3]: 1.3 g
KIDNEY_R [3]: 1.3 g
KIDNEY_TOTAL [3]: 2.5 g
KIDNEY_L [4]: 1.4 g
KIDNEY_R [4]: 1.4 g
KIDNEY_TOTAL [4]: 2.8 g
ALP [2]: 844.4 IU/L
ALT [2]: 29.2 IU/L
AST [2]: 59.2 IU/L
BUN [2]: 15.8 mg/dL
CRE [2]: 0.4 mg/dL
Ca [2]: 10.7 mg/dL
Cl [2]: 102.4 meq/L
DBIL [2]: 0.096 mg/dL
GLC [2]: 210.8 mg/dL
IP [2]: 7.6 mg/dL
K [2]: 3.6 meq/L
LDH [2]: 178.2 IU/L
Na [2]: 141 meq/L
PL [2]: 137.4 mg/dL
RALB [2]: 3.4 g/dL
TBIL [2]: 0.1 mg/dL
TC [2]: 66.4 mg/dL
TG [2]: 100.2 mg/dL
TP [2]: 5.5 g/dL
gamma-GTP [2]: 0.6 IU/L
ALP [3]: 726.8 IU/L
ALT [3]: 33.4 IU/L
AST [3]: 62.2 IU/L
BUN [3]: 17.8 mg/dL
CRE [3]: 0.4 mg/dL
Ca [3]: 10.8 mg/dL
Cl [3]: 103 meq/L
DBIL [3]: 0.1 mg/dL
GLC [3]: 193.6 mg/dL
IP [3]: 7.2 mg/dL
K [3]: 3.9 meq/L
LDH [3]: 220.2 IU/L
Na [3]: 141 meq/L
PL [3]: 151.2 mg/dL
RALB [3]: 3.3 g/dL
TBIL [3]: 0.1 mg/dL
TC [3]: 67.8 mg/dL
TG [3]: 152.8 mg/dL
TP [3]: 5.8 g/dL
gamma-GTP [3]: 1 IU/L
ALP [4]: 605.4 IU/L
ALT [4]: 33.2 IU/L
AST [4]: 60.8 IU/L
BUN [4]: 17 mg/dL
CRE [4]: 0.5 mg/dL
Ca [4]: 10.1 mg/dL
Cl [4]: 103.2 meq/L
DBIL [4]: 0.1 mg/dL
GLC [4]: 213 mg/dL
IP [4]: 6.3 mg/dL
K [4]: 3.7 meq/L
LDH [4]: 150 IU/L
Na [4]: 141 meq/L
PL [4]: 132.4 mg/dL
RALB [4]: 3.4 g/dL
TBIL [4]: 0.2 mg/dL
TC [4]: 65.4 mg/dL
TG [4]: 111.6 mg/dL
TP [4]: 6 g/dL
gamma-GTP [4]: 1.2 IU/L
TERMINAL_BW [5]: 237.2 g
APTT [5]: 19.4 s
Bas [5]: 0%
Eos [5]: 0.8%
Fbg [5]: 214 mg/dL
Hb [5]: 13.7 g/dL
Ht [5]: 40.3%
Lym [5]: 81%
MCH [5]: 21.4 pg
MCHC [5]: 33.9%
MCV [5]: 62.9 fL
Mono [5]: 2.8%
Neu [5]: 13.6%
Plat [5]: 113.2 x10_4/uL
RBC [5]: 641.2 x10_4/ul
Ret [5]: 5.8%
WBC [5]: 103.1 x10_2/uL
KIDNEY_L [5]: 1.1 g
KIDNEY_R [5]: 1.1 g
KIDNEY_TOTAL [5]: 2.2 g
ALP [5]: 890.4 IU/L
ALT [5]: 45 IU/L
AST [5]: 86.4 IU/L
BUN [5]: 13.8 mg/dL
CRE [5]: 0.4 mg/dL
Ca [5]: 10.7 mg/dL
Cl [5]: 102.2 meq/L
DBIL [5]: 0.09 mg/dL
GLC [5]: 205.2 mg/dL
IP [5]: 6.8 mg/dL
K [5]: 3.8 meq/L
LDH [5]: 315.2 IU/L
Na [5]: 140.4 meq/L
PL [5]: 146.2 mg/dL
RALB [5]: 3.5 g/dL
TBIL [5]: 0.1 mg/dL
TC [5]: 71 mg/dL
TP [5]: 5.7 g/dL
gamma-GTP [5]: 0.6 IU/L
TERMINAL_BW [6]: 270.5 g
TERMINAL_BW [7]: 315.9 g
TERMINAL_BW [8]: 394.7 g
APTT [6]: 22.5 s
Bas [6]: 0%
Eos [6]: 1%
Fbg [6]: 205.8 mg/dL
Hb [6]: 13.5 g/dL
Ht [6]: 39.9%
Lym [6]: 84.2%
MCH [6]: 20.8 pg
MCHC [6]: 33.9%
MCV [6]: 61.4 fL
Mono [6]: 2.2%
Neu [6]: 12.2%
PT [6]: 12.6 s
Plat [6]: 120.9 x10_4/uL
RBC [6]: 650.4 x10_4/ul
Ret [6]: 5.3%
WBC [6]: 120.2 x10_2/uL
APTT [7]: 19.9 s
Bas [7]: 0%
Eos [7]: 1.2%
Fbg [7]: 220.6 mg/dL
Hb [7]: 14.7 g/dL
Ht [7]: 42.3%
Lym [7]: 77.2%
MCH [7]: 20.9 pg
MCHC [7]: 34.9%
MCV [7]: 59.8 fL
Mono [7]: 2%
Neu [7]: 18.2%
Plat [7]: 128.5 x10_4/uL
RBC [7]: 707.4 x10_4/ul
Ret [7]: 3.6%
WBC [7]: 138.1 x10_2/uL
APTT [8]: 20.3 s
Bas [8]: 0%
Eos [8]: 1.4%
Fbg [8]: 207.2 mg/dL
Hb [8]: 15.4 g/dL
Ht [8]: 44.6%
Lym [8]: 80.4%
MCH [8]: 19.2 pg
MCHC [8]: 34.4%
MCV [8]: 55.7 fL
Mono [8]: 2.4%
Neu [8]: 14.2%
Plat [8]: 101 x10_4/uL
RBC [8]: 801 x10_4/ul
Ret [8]: 2%
WBC [8]: 104.5 x10_2/uL
KIDNEY_L [6]: 1.2 g
KIDNEY_R [6]: 1.2 g
KIDNEY_TOTAL [6]: 2.3 g
KIDNEY_L [7]: 1.3 g
KIDNEY_R [7]: 1.3 g
KIDNEY_TOTAL [7]: 2.5 g
KIDNEY_L [8]: 1.5 g
KIDNEY_R [8]: 1.5 g
KIDNEY_TOTAL [8]: 3 g
ALP [6]: 901.6 IU/L
ALT [6]: 27.8 IU/L
AST [6]: 62.2 IU/L
BUN [6]: 16 mg/dL
CRE [6]: 0.4 mg/dL
Ca [6]: 10.6 mg/dL
Cl [6]: 102.6 meq/L
DBIL [6]: 0.096 mg/dL
GLC [6]: 219 mg/dL
IP [6]: 7.3 mg/dL
K [6]: 4.1 meq/L
LDH [6]: 213.4 IU/L
Na [6]: 140.4 meq/L
PL [6]: 140.6 mg/dL
RALB [6]: 3.2 g/dL
TBIL [6]: 0.1 mg/dL
TC [6]: 73.4 mg/dL
TG [6]: 107.4 mg/dL
TP [6]: 5.5 g/dL
gamma-GTP [6]: 0.6 IU/L
ALP [7]: 902.4 IU/L
ALT [7]: 40.6 IU/L
AST [7]: 76 IU/L
BUN [7]: 16 mg/dL
CRE [7]: 0.4 mg/dL
Ca [7]: 10.6 mg/dL
Cl [7]: 102.8 meq/L
DBIL [7]: 0.1 mg/dL
GLC [7]: 189.8 mg/dL
IP [7]: 7.1 mg/dL
K [7]: 4.2 meq/L
LDH [7]: 244 IU/L
Na [7]: 140.8 meq/L
PL [7]: 153 mg/dL
RALB [7]: 3.5 g/dL
TBIL [7]: 0.1 mg/dL
TC [7]: 71.8 mg/dL
TG [7]: 133.6 mg/dL
TP [7]: 5.8 g/dL
gamma-GTP [7]: 0.6 IU/L
ALP [8]: 733.8 IU/L
ALT [8]: 33 IU/L
AST [8]: 67.2 IU/L
BUN [8]: 17 mg/dL
CRE [8]: 0.5 mg/dL
Ca [8]: 10.3 mg/dL
Cl [8]: 102.6 meq/L
DBIL [8]: 0.094 mg/dL
GLC [8]: 232.8 mg/dL
IP [8]: 6.7 mg/dL
K [8]: 3.9 meq/L
LDH [8]: 186.2 IU/L
Na [8]: 141.2 meq/L
PL [8]: 143.2 mg/dL
RALB [8]: 3.4 g/dL
TBIL [8]: 0.2 mg/dL
TC [8]: 68.6 mg/dL
TG [8]: 125 mg/dL
TP [8]: 6.1 g/dL
gamma-GTP [8]: 0.6 IU/L
TERMINAL_BW (150 mg/kg, 72 h, dose level Middle, time 3 day): 239.9 g

Source: ChEMBL document CHEMBL3885861, “Open TG-GATES”
